According to patent publication US9284296B2, “Bipyridine sulfonamide derivatives for the treatment of neurodegenerative diseases or conditions” (AUBERGINE PHARMACEUTICALS LLC, priority 2010, dated 2016):

system: SH-SY5Y human neuroblastoma cells; experiment: Protection against hydrogen peroxide-induced cell death; format: cell-based; conditions: Homo sapiens; SH-SY5Y cells, 1 h preincubation, 100 μM hydrogen peroxide, 24 h, LDH readout of live cells
Method: The aim of this assay is to determine the neuroprotective effect of the compounds when human neuroblastoma cells are exposed to the oxidative stress induced by hydrogen peroxide, which leads to cell death. Therefore the protective effect of the compounds was measured by monitoring cell survival using a suitable commercial kit (Cytotoxicity Detection Kit, Roche Diagnostics GmbH, Mannheim, Germany) based on the quantification of the lactate dehydrogenase activity obtained from lysates of the remaining live cells with a colorimetric assay yielding absorbance at 492 nm as the final readout.
SH-SY5Y human neuroblastoma cells were seeded into 96-well culture plate at a density of 10,000 cells/well. Cells were preincubated for one hour with different concentrations of the compound at a 1% (v/v) DMSO concentration in an equivolumetric mixture of Minimum Essential Medium (MEM) and Nutrient Mixture HAM F12 supplemented with 10% foetal bovine serum, 100 U/ml penicillin, 100 μg/ml streptomycin, 1 mM each of non-essential aminoacids (commercial preparation from GIBCO, Paisley, UK) and 2 mM L-glutamine. Hydrogen peroxide was then added to reach 100 μM and the incubation was extended for 24 h. Then the medium was removed and live cells, which remained attached to the bottom of the plate, were lysed by incubating them during 5 min with 50 μl of 1% (v/v) Triton X-100 in Krebs-Hepes buffer (10 mM Hepes pH7.3 with 145 mM NaCl, 5.5 mM KCl, 1 mM MgCl2, 2 mM CaCl2 and 1 mM glucose). This lysate was used to measure LDH activity using the commercial kit according to the manufacturer's instructions. In the culture plate several wells were included as a control of cell death, in these wells the cells were preincubated with 1% (v/v) DMSO before hydrogen peroxide addition. Likewise, several wells were included as control for full cell survival, in these wells the addition of H2O2 was omitted. The absorbance of each tested sample was normalized to that of the control wells, so that for every compound concentration the percentage of protective effect was calculated with the following equation:
[formula] where “S” is the absorbance of the sample being considered, “E” is the average absorbance of wells used as control of full cell survival and “B” is the average absorbance of wells used as control of cell death. The values obtained at every compound concentration were finally used to calculate the EC50 (i.e., the concentration causing 50% of protective effect) of the tested compound. For that purpose the data were fitted to a classical 4-parameters isotherm equation using the nonlinear regression function of GraphPad™ Prism 5.0 (GraphPad Software Inc.), such equation is described below:
[formula] where “L” is the lower asymptote of the theoretical sigmoidal curve, “H” is the higher asymptote, “C” is the concentration of compound and “n” is the Hill coefficient.

SMILES | EC50
COc1cc(CNS(=O)(=O)c2cc(OC)ccc2OC)nc(-c2ccccn2)c1 [Compound 1, 2,5-Dimethoxy-N-(4-methoxy-[2,2′]bipyridinyl-6-ylmethyl)-benzenesulfonamide] | 36 µM
COc1cc(CNS(=O)(=O)c2ccc(C)cc2)nc(-c2ccccn2)c1 [Compound 3, N-(4-Methoxy-[2,2′]bipyridinyl-6-ylmethyl)-4-methyl-benzenesulfonamide] | 23 µM
COc1cc(CNS(C)(=O)=O)nc(-c2ccccn2)c1 [Compound 5, N-(4-Methoxy-[2,2′]bipyridinyl-6-ylmethyl)-methanesulfonamide] | 39.8 µM
COc1cc(CNS(=O)(=O)C2CCCCC2)nc(-c2ccccn2)c1 [Compound 7, Cyclohexanesulfonic acid (4-methoxy-[2,2′]bipyridinyl-6-ylmethyl)-amide] | 11.2 µM
COc1cc(CNS(=O)(=O)c2ccc3ccccc3c2)nc(-c2ccccn2)c1 [Compound 15, Naphthalene-2-sulfonic acid (4-methoxy-[2,2′]bipyridinyl-6-ylmethyl)-amide] | 4.8 µM
COc1cc(CNS(=O)(=O)C(F)(F)F)nc(-c2ccccn2)c1 [Compound 17, C,C,C-Trifluoro-N-(4-methoxy-[2,2′]bipyridinyl-6-ylmethyl)-methanesulfonamide] | 0.82 µM
COc1cc(CNS(=O)(=O)N2CCOCC2)nc(-c2ccccn2)c1 [Compound 20, Morpholine-4-sulfonic acid (4-methoxy-[2,2′]bipyridinyl-6-ylmethyl)-amide] | 5.1 µM
COc1cc(CNS(=O)(=O)c2cccnc2)nc(-c2ccccn2)c1 [Compound 21, Pyridine-3-sulfonic acid (4-methoxy-[2,2′]bipyridinyl-6-ylmethyl)-amide] | 5.19 µM
COc1cc(CNS(=O)(=O)c2ccc(S(C)(=O)=O)cc2)nc(-c2ccccn2)c1 [Compound 22, 4-Methanesulfonyl-N-(4-methoxy-[2,2′]bipyridinyl-6-ylmethyl)-benzenesulfonamide] | 0.88 µM
COc1cc(CNS(=O)(=O)Cc2ccc(C(F)(F)F)cc2)nc(-c2ccccn2)c1 [Compound 23, N-(4-Methoxy-[2,2′]bipyridinyl-6-ylmethyl)-C-(4-trifluoromethyl-phenyl)-methanesulfonamide] | 2.91 µM
COc1cc(CN(Cc2cc(OC)cc(-c3ccccn3)n2)S(=O)(=O)c2cccs2)nc(-c2ccccn2)c1 [Compound 25] | 4.95 µM
COc1cc(CNS(=O)(=O)c2c(C)noc2C)nc(-c2ccccn2)c1 [Compound 54] | 23.1 µM
COc1cc(CNS(=O)(=O)c2ccc(Cl)cc2F)nc(-c2ccccn2)c1 [Compound 57] | 1.5 µM
COc1cc(CNS(=O)(=O)c2c(F)cccc2F)nc(-c2ccccn2)c1 [Compound 58] | 1.6 µM
COc1cc(CNS(=O)(=O)c2cc(F)ccc2F)nc(-c2ccccn2)c1 [Compound 59] | 4.8 µM
COc1cc(CNS(=O)(=O)c2cccc3cccnc23)nc(-c2ccccn2)c1 [Compound 60] | 3.2 µM
COc1cc(CNS(=O)(=O)c2cccc3scnc23)nc(-c2ccccn2)c1 [Compound 61] | 0.82 µM
COc1cc(CNS(=O)(=O)c2cc3ccccc3o2)nc(-c2ccccn2)c1 [Compound 62] | 1.88 µM
COc1cc(CNS(=O)(=O)c2ccc(-c3cc(C)no3)o2)nc(-c2ccccn2)c1 [Compound 79] | 0.72 µM
COc1cc(CNS(=O)(=O)c2cccc(Cl)c2Cl)nc(-c2ccccn2)c1 [Compound 95] | 1.09 µM
